Data published in US9949981B2, “Compositions and methods for treating proliferation disorders” (Arqule, Inc., priority 2014, dated 2018).
Like-named read-outs stand apart in the source and are kept apart here. Values belong to the compound of their own block, whether it stands above or below them.

Columns and labels:
AKT1 = AKT1 (Homo sapiens, UniProt P31749); test: Inactive AKT Alpha Screen Assay
[1] = system: pAKT in KU-19-19 (E17K) mutant bladder cancer cells; test: pAKT in KU-19-19 cells, two hour treatment; conditions: normal medium, 2 hours, FIGS. 17 and 18
[2] = system: pPRAS40 in KU-19-19 (E17K) mutant bladder cancer cells; test: pPRAS40 in KU-19-19 cells, two hour treatment; conditions: normal medium, 2 hours, FIGS. 17 and 18
[3] = system: AKT1 phosphorylation in Proteus single cell clones; conditions: FIG. 15
[4] = system: Proteus single cell clones (A6B AKT1 p.E17K positive and E8F9A mutation negative cells); test: Viability of Proteus single cell clones; type: cell-based, human; conditions: presence or absence of serum; 24 hours serum starvation; 72 hours; FIGS. 5A and 5B
[5] = system: S6 phosphorylation in Proteus single cell clones; conditions: F6B mutation positive and H4A mutation negative clones; with or without serum; FIGS. 16A and 16B

AKT1, sequence (P31749 whole entry): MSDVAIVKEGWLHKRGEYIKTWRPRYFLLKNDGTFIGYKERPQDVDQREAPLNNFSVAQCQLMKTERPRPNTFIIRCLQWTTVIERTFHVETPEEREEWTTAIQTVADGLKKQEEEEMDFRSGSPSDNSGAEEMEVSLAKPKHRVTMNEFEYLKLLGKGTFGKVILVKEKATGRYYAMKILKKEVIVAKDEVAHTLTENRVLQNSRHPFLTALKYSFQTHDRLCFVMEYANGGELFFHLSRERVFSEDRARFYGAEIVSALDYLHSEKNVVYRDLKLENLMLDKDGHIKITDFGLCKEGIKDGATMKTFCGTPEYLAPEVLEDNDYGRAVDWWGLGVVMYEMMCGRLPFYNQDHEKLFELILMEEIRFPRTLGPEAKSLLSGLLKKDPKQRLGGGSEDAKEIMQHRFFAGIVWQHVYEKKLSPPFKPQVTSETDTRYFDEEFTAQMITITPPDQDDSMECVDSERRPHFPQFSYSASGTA

- IC50 (AKT1): 2.2 nM
Structure (SMILES): Nc1ncccc1-c1nc2ccc(-c3cccc(N4CCOCC4)c3)nc2n1-c1ccc(C2(N)CCC2)cc1 [Compound 2, 3-(3-(4-(1-aminocyclobutyl)phenyl)-5-(3-morpholinophenyl)-3H-imidazo[4,5-b]pyridin-2-yl)pyridin-2-amine]

Structure (SMILES): NC1(c2ccc(-c3nc4ccn5c(=O)[nH]nc5c4cc3-c3ccccc3)cc2)CCC1 [MK-2206, reference compound]
- pAKT [1]: inhibit
- pPRAS40 [2]: inhibit

Structure (SMILES): CO[C@H]1C[C@@H]2CC[C@@H](C)[C@@](O)(O2)C(=O)C(=O)N2CCCC[C@H]2C(=O)O[C@H]([C@H](C)C[C@@H]2CC[C@@H](OCCO)[C@H](OC)C2)CC(=O)[C@H](C)/C=C(\C)[C@@H](O)[C@@H](OC)C(=O)[C@H](C)C[C@H](C)/C=C/C=C/C=C/1C [everolimus]
- pAKT/AKT ratio ([3]; F6B AKT1 p.E17K mutant cells in serum free conditions): decreases the pAKT/AKT ratio
- pAKT/AKT ratio ([3]; mutant negative cells (H4A) or mutant cells gown in serum free conditions): has no effect or increases the ratio
- viability of Proteus single cell clones [4]: mutation positive cells are more sensitive than control cells
- pS6 levels [5]: greatly decreases pS6 levels
